According to US20250188079A1, “INHIBITING CYCLIC AMP-RESPONSIVE ELEMENT-BINDING PROTEIN (CREB)” (Forma Therapeutics, Inc., priority 2019, published 2025):

molecular target: CBP (Homo sapiens (Human), UniProt Q92793); experiment: HTRF biochemical assay for CBP activity (TR-FRET, bromodomain); format: binding; settings: geometric mean, 10-point 3-fold dilution 33 μM to 1.7 nM, read-out: BROMO IC50 TRF TB CBP (μM gmean)
Method: Example 1: HTRF Biochemical Assay for CBP Activity
The assay was performed in a final volume of 6 μL in assay buffer containing 50 mM Hepes (pH 7.5, (0.5M Hepes, pH 7.5 solution; Teknova H1575)), 0.5 mM GSH, 0.01% BGG (0.22 p M filtered, Sigma, G7516-25G), 0.005% BSA (0.22 μM filtered, EMD Millipore Corporation, 126575) and 0.01% Triton X-100 (Sigma, T9284-10L). Nanoliter quantities of 10-point, 3-fold serial dilution in DMSO were pre-dispensed into 1536 assay plates (Corning, #3724BC) for a final test concentration of 33 μM to 1.7 nM, top to lowest dose, respectively. 3 μL of 2×Protein and 3 μL of 2×Peptide Ligand were added to assay plates (pre-stamped with compound). Plates were incubated for varying times at room temperature prior to measuring the signal. TR-FRET (Time-Resolved Fluorescence Resonance Energy Transfer) was measured on the PHERAstar (BMG, equipped with HTRF optic module [337/520/490]) or on the Envision (PerkinElmer, equipped with the TRF Laser unit, TRF dual mirror D400/D505 and emission filters M520 and M495). Data were reported as percent inhibition compared with control wells based on the following equation: % inh=1−((TR-FRET ratio−AveLow)/(AveHigh−AveLow)) where TR-FRET ratio=(Fluorescence at 520 nm/Fluorescence at 490 nm)*10000), AveLow=average TR-FRET ratio of no enzyme control (n=32), and AveHigh=average TR-FRET ratio of DMSO control (n=32). IC50 values were determined by curve fitting of the standard 4 parameter logistic fitting algorithm included in the Activity Base software package: IDBS XE Designer Model205. Data is fitted using the Levenburg Marquardt algorithm. As set forth in Table 2 below, an IC50 value of greater than or equal to 0.001 μM and less than or equal to 0.01 μM is marked “++++”; a value greater than 0.01 μM and less than or equal to 0.1 μM is marked “+++”; a value greater than 0.1 μM and less than or equal to 1 μM is marked “++”; and a value greater than 1 μM and less than 1000 μM is marked “+.” Compounds that were not tested in a particular assay are marked “NT.”

Chain of CBP (Q92793 1085-1192): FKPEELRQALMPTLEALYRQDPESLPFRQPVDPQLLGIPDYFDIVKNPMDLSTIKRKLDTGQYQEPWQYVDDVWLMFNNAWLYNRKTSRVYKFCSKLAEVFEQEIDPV

First: COC(=O)N1CCc2ccc3c(nc([C@H]4CC[C@H](C(=O)O)CC4)n3[C@H](C)Cc3ccccc3Cl)c2C1 [Compound 295]
Second: COC(=O)N1CCc2ccc3c(nc([C@H]4CC[C@@H](C(=O)O)C4)n3[C@H](C)Cc3ccccc3C)c2C1 [Compound 59]
The IC50 of the first is higher: 0.1 to 1 µM for the first, 0.001 to 0.01 µM for the second.

COC(=O)N1CCc2ccc3c(nc([C@@H]4CCC[C@@H](C(=O)O)C4)n3[C@H](C)Cc3ccccc3Cl)c2C1 (single isomer, unassigned) [Compound 263] and COC(=O)N1CCc2ccc3c(nc([C@H]4CC[C@H](C(=O)O)CC4)n3[C@H](C)[C@H](O)c3ccccc3)c2C1 [Compound 276] fall in the same range of IC50: 0.01 to 0.1 µM for the first, 0.01 to 0.1 µM for the second.

Compared with COC(=O)N1CCc2c(C#N)cc3c(nc([C@H]4CC[C@H](C(=O)O)CC4)n3CCc3ccccc3)c2C1 [Compound 121], COC(=O)N1CCc2ccc3c(nc(C4CCN(C(C)=O)CC4)n3[C@H](C)Cc3cccnc3)c2C1 [Compound 346] is higher in IC50: 0.001 to 0.01 µM for the first, 0.1 to 1 µM for the second.

COC(=O)N1CCc2ccc3c(nc(C4CCCCC4)n3C[C@](C)(C(=O)O)c3ccccc3)c2C1 [Compound 135] and COC(=O)N1CCc2ccc3c(nc([C@H]4CC[C@H](C(=O)O)CC4)n3[C@@H](C)[C@@H](O)c3ccccc3)c2C1 [Compound 92] fall in the same range of IC50: 0.001 to 0.01 µM for the first, 0.001 to 0.01 µM for the second.

First: COC(=O)N1CCc2c(Cl)cc3c(nc([C@H]4CC[C@H](C(=O)O)CC4)n3CCc3ccccc3)c2C1 [Compound 154]
Second: COC(=O)N1CCc2ccc3c(nc([C@H]4CC[C@@H](C(=O)O)CC4)n3CCn3cc(Cl)cn3)c2C1 [Compound 291]
The IC50 of the first is lower: 0.001 to 0.01 µM for the first, 0.1 to 1 µM for the second.

COC(=O)N1CCc2ccc3c(nc(C4CCCCC4)n3C[C@H](C(=O)O)c3ccccc3)c2C1 [Compound 38] and COC(=O)N1CCc2ccc3c(nc([C@H]4CCC[C@@H](C(=O)O)C4)n3[C@H](C)Cc3ccccc3)c2C1 (single isomer, unassigned) [Compound 12] fall in the same range of IC50: 0.001 to 0.01 µM for the first, 0.001 to 0.01 µM for the second.

Compared with COC(=O)N1CCc2ccc3c(nc([C@H]4CC[C@H](C(=O)O)CC4)n3C[C@@H]3CCc4ccccc4C3)c2C1 [Compound 211], COC(=O)N1CCc2ccc3c(nc(N4CCN(S(C)(=O)=O)CC4)n3[C@@H](C)Cn3cc(Cl)cn3)c2C1 [Compound 66] is lower in IC50: 0.01 to 0.1 µM for the first, 0.001 to 0.01 µM for the second.

First: COC(=O)N1CCc2ccc3c(nc([C@H]4CC[C@H](C(=O)O)CC4)n3[C@H](C)C[C@H]3CC[C@@H](OC)CC3)c2C1 [Compound 68]
Second: CNC(=O)N1CCc2ccc3c(nc([C@H]4CC[C@H](C(=O)O)CC4)n3[C@@H](C)Cc3ccccc3)c2C1 [Compound 228]
The IC50 of the first is lower: 0.001 to 0.01 µM for the first, 0.01 to 0.1 µM for the second. The first is the more potent here.

COC(=O)N1CCc2ccc3c(nc([C@H]4CC[C@H](C(=O)O)CC4)n3CCn3cc(Cl)cn3)c2C1 [Compound 236] and COC(=O)N1CCc2ccc3c(nc(-c4ccc(C(=O)O)c(F)c4)n3[C@H](C)Cc3ccccc3)c2C1 [Compound 280] fall in the same range of IC50: 0.01 to 0.1 µM for the first, 0.01 to 0.1 µM for the second.

COC(=O)N1CCc2ccc3c(nc(C4CCCCC4)n3[C@@H](C)C[C@H]3CC[C@H](C(=O)O)CC3)c2C1 [Compound 48] and COC(=O)N1CCc2ccc3c(nc([C@H]4CC[C@H](C(=O)O)CC4)n3[C@@H](C)Cc3ccc(F)c(OC)c3)c2C1 [Compound 43] fall in the same range of IC50: 0.001 to 0.01 µM for the first, 0.001 to 0.01 µM for the second.

First: COC(=O)N1CCc2c([C@H]3CCOC3)cc3c(nc([C@H]4CC[C@H](C(=O)O)CC4)n3[C@H](C)Cc3ccccc3)c2C1 [Compound 201]
Second: (1S,3S)-3-[3-[(2S)-1-(3,4-difluorophenyl)propan-2-yl]-8-(methoxycarbonyl)-3H,6H,7H,8H,9H-imidazo[4,5-h]isoquinolin-2-yl]cyclohexane-1-carboxylic acid [Compound 60]
The IC50 of the first is higher: 0.01 to 0.1 µM for the first, 0.001 to 0.01 µM for the second. The second is the more potent here.

First: COC(=O)N1CCc2ccc3c(nc(C4CCN(S(N)(=O)=O)CC4)n3[C@H](C)Cc3ccccc3)c2C1 [Compound 330]
Second: COC(=O)N1CCc2ccc3c(nc(C4CCCCC4)n3C[C@H](CC(=O)O)c3ccc(F)c(F)c3)c2C1 [Compound 70]
The IC50 of the first is higher: 0.1 to 1 µM for the first, 0.001 to 0.01 µM for the second.

Compared with COC(=O)N1CCc2ccc3c(nc([C@H]4CCCOC4)n3C[C@H](C(=O)O)c3ccc(C)cc3)c2C1 [Compound 53], COC(=O)N1CCc2c(C(=O)O)cc3c(nc(C4CCCCC4)n3[C@H](C)Cc3ccccc3)c2C1 [Compound 300] is higher in IC50: 0.001 to 0.01 µM for the first, 0.1 to 1 µM for the second.

First: COC(=O)N1CCc2ccc3c(nc(N4CCCCC4)n3C[C@@H](CC(=O)O)c3ccc(F)c(F)c3)c2C1 [Compound 25]
Second: COC(=O)N1CCc2ccc3c(nc([C@H]4CC[C@H](S(N)(=O)=O)CC4)n3[C@H](C)Cc3ccccc3)c2C1 [Compound 301]
The IC50 of the first is lower: 0.001 to 0.01 µM for the first, 0.1 to 1 µM for the second.

COC(=O)N1CCc2ccc3c(nc(-c4cccc(CC(=O)O)c4)n3[C@@H](C)Cn3cc(Cl)cn3)c2C1 [Compound 113] and COC(=O)N1CCc2cc(C#N)c3c(nc([C@H]4CC[C@H](C(=O)O)CC4)n3CCc3ccccc3)c2C1 [Compound 153] fall in the same range of IC50: 0.001 to 0.01 µM for the first, 0.001 to 0.01 µM for the second.

First: COC(=O)N1CCc2ccc3c(nc(C4CCCCC4)n3[C@@H](CO)Cc3cccc(C(=O)O)c3)c2C1 [Compound 152]
Second: COC(=O)N1Cc2c(ccc3c2nc(C2CCCCC2)n3Cc2ccccc2)C[C@H]1C [Compound 282]
The IC50 of the first is lower: 0.001 to 0.01 µM for the first, 0.01 to 0.1 µM for the second. The first is the more potent here.

COC(=O)N1CCc2ccc3c(nc(C4CCCCC4)n3CCc3ccccc3C(=O)O)c2C1 [Compound 137] and COC(=O)N1CCc2ccc3c(nc([C@H]4CC[C@H](C(=O)O)CC4)n3[C@@H](CO)Cc3ccccc3)c2C1 [Compound 151] fall in the same range of IC50: 0.001 to 0.01 µM for the first, 0.001 to 0.01 µM for the second.

COC(=O)N1CCc2ccc3c(nc([C@H]4CC[C@H](C(=O)O)CC4)n3[C@H](C)Cc3ccc(F)c(F)c3)c2C1 [Compound 40] and COC(=O)N1CCc2ccc3c(nc(C4CCCCC4)n3C[C@H](C(=O)O)c3ccc(F)c(OC)c3)c2C1 [Compound 9] fall in the same range of IC50: 0.001 to 0.01 µM for the first, 0.001 to 0.01 µM for the second.

First: COC(=O)N1CCc2c(C(=O)O)cc3c(nc(C4CCCCC4)n3[C@@H](C)Cc3ccccc3)c2C1 [Compound 67]
Second: COC(=O)N1CCc2ccc3c(nc([C@@H]4CCC[C@@H](C(=O)O)C4)n3[C@H](C)Cc3ccc(F)c(F)c3)c2C1 [Compound 217]
The IC50 of the first is lower: 0.001 to 0.01 µM for the first, 0.01 to 0.1 µM for the second. The first is the more potent here.

COC(=O)N1CCc2ccc3c(nc(C4CCCCC4)n3[C@H](C)C[C@H]3CC[C@@H](C(=O)O)CC3)c2C1 [Compound 142] and COC(=O)N1CCc2ccc3c(nc([C@H]4CC[C@H](C(=O)O)CC4)n3[C@@H](C)Cc3ccccn3)c2C1 [Compound 141] fall in the same range of IC50: 0.001 to 0.01 µM for the first, 0.001 to 0.01 µM for the second.

COC(=O)N1CCc2ccc3c(nc([C@H]4CC[C@H](C(=O)O)CC4)n3[C@H](C)CC3CCCCC3)c2C1 [Compound 114] and COC(=O)N1CCc2ccc3c(nc([C@H]4CC[C@H](C(=O)O)CC4)n3[C@H](C)[C@@H](O)c3ccccc3)c2C1 [Compound 146] fall in the same range of IC50: 0.001 to 0.01 µM for the first, 0.001 to 0.01 µM for the second.

First: COC(=O)N1CCc2ccc3c(nc([C@H]4CC[C@@H](OC)CC4)n3C[C@@H](C(=O)O)c3ccccc3)c2C1 [Compound 64]
Second: COC(=O)N1CCc2ccc3c(nc([C@H]4CCC[C@H](C(=O)O)C4)n3Cc3cccc(Cl)n3)c2C1 [Compound 225]
The IC50 of the first is lower: 0.001 to 0.01 µM for the first, 0.01 to 0.1 µM for the second. The first is the more potent here.

Compared with COC(=O)N1CCc2ccc3c(nc([C@@H]4CC[C@H](C(=O)O)C4)n3[C@H](C)Cc3ccccc3C)c2C1 [Compound 329], COC(=O)N1CCc2ccc3c(nc([C@H]4CC[C@H](C(=O)O)CC4)n3[C@H](CO)Cc3ccc(F)c(F)c3)c2C1 [Compound 288] is lower in IC50: 0.1 to 1 µM for the first, 0.01 to 0.1 µM for the second.

First: COC(=O)N1CCc2ccc3c(nc(N4CCCCC4)n3C[C@@H](CC(=O)O)c3ccccc3)c2C1 [Compound 47]
Second: COC(=O)N1CCc2ccc3c(nc(C4CCN(S(=O)(=O)NC(C)=O)CC4)n3[C@H](C)Cc3ccccc3)c2C1 [Compound 348]
The IC50 of the first is lower: 0.001 to 0.01 µM for the first, 1 to 1000 µM for the second.

Compared with COC(=O)N1CCc2ccc3c(nc([C@@H]4CCC[C@H](C(=O)O)C4)n3[C@H](C)Cc3ccccc3)c2C1 (single isomer, unassigned) [Compound 233], COC(=O)N1CCc2ccc3c(nc(C4CCCCC4)n3C[C@@H](CC(=O)O)c3ccc(F)c(F)c3)c2C1 [Compound 21] is lower in IC50: 0.01 to 0.1 µM for the first, 0.001 to 0.01 µM for the second. The second is the more potent here.

First: COC(=O)N1CCc2ccc3c(nc([C@H]4CC[C@H](C(=O)O)CC4)n3[C@H](C)Cc3ccccc3Cl)c2C1 [Compound 297]
Second: COC(=O)N1CCc2ccc3c(nc(C4CCCCC4)n3C[C@H](C(=O)NS(C)(=O)=O)c3ccccc3)c2C1 (single isomer, unassigned) [Compound 22]
The IC50 of the first is higher: 0.1 to 1 µM for the first, 0.001 to 0.01 µM for the second. The second is the more potent here.

First: COC(=O)N1CCc2ccc3c(nc(C4CCCCC4)n3C[C@@H]3CCCC[C@@H]3C(=O)O)c2C1 [Compound 195]
Second: COC(=O)N1CCc2ccc3c(nc([C@H]4CC[C@H](C(=O)O)CC4)n3[C@@H](C)Cc3cccc(C)c3)c2C1 [Compound 100]
The IC50 of the first is higher: 0.01 to 0.1 µM for the first, 0.001 to 0.01 µM for the second.
